The source of these data is ChEMBL document CHEMBL1130825, “Novel D-ring analogues of podophyllotoxin as potent anti-cancer agents” (1998).

One experiment deals with A498. The experiment in a line: in vitro cytotoxicity against A 498 cancer cell line. The experiment is classed as functional. The conditions noted are these: Homo sapiens.
`CCOC(=O)[C@@H]1[C@H](c2cc(OC)c(O)c(OC)c2)c2cc3c(cc2[C@H](O)[C@H]1CO)OCO3`: it took 1.1 µM to inhibit growth by half (GI50).
Same read-out and setting: to `CCOC(=O)[C@@H]1[C@H](c2cc(OC)c(OC)c(OC)c2)c2cc3c(cc2[C@H](O)[C@H]1CO)OCO3` belongs over 30 µM.

In a further experiment the test system is BT-549. The experiment is described as follows: In vitro cytotoxicity against human breast cancer BT-549 cell line. The experiment is classed as functional.
Conditions: not given
With `CCOC(=O)[C@@H]1[C@H](c2cc(OC)c(O)c(OC)c2)c2cc3c(cc2[C@H](O)[C@H]1CO)OCO3`, growth was halved (GI50) at 4.91 µM.
Still for that read-out and setting: to `CCOC(=O)[C@@H]1[C@H](c2cc(OC)c(OC)c(OC)c2)c2cc3c(cc2[C@H](O)[C@H]1CO)OCO3` belongs over 30 µM.

Another experiment concerns COLO 205. The experiment is described as follows: In vitro cytotoxicity against human colon cancer COLO 205 cell line. The experiment is classed as functional.
Conditions: not given
With `CCOC(=O)[C@@H]1[C@H](c2cc(OC)c(O)c(OC)c2)c2cc3c(cc2[C@H](O)[C@H]1CO)OCO3`, the GI50 was found to be 1.16 µM.
As for `CCOC(=O)[C@@H]1[C@H](c2cc(OC)c(OC)c(OC)c2)c2cc3c(cc2[C@H](O)[C@H]1CO)OCO3`, halving of growth (GI50) required 14 µM.

The next experiment has as its system DU-145. The experiment in a line: in vitro cytotoxicity against DU-145 cancer cell line. The experiment is classed as functional. Conditions: Homo sapiens.
`CCOC(=O)[C@@H]1[C@H](c2cc(OC)c(O)c(OC)c2)c2cc3c(cc2[C@H](O)[C@H]1CO)OCO3` gave a GI50 of 1.63 µM.
The same measure, in the same setting: to `CCOC(=O)[C@@H]1[C@H](c2cc(OC)c(OC)c(OC)c2)c2cc3c(cc2[C@H](O)[C@H]1CO)OCO3` belongs over 30 µM.

In the next experiment the test system is HCT-15. The experiment is described as follows: In vitro cytotoxicity against human colon cancer HCT 15 cell line. The experiment is classed as functional.
Conditions: not given
In turn, `CCOC(=O)[C@@H]1[C@H](c2cc(OC)c(O)c(OC)c2)c2cc3c(cc2[C@H](O)[C@H]1CO)OCO3` registered a GI50 of 2.07 µM.
On the same count and under the same terms, for `CCOC(=O)[C@@H]1[C@H](c2cc(OC)c(OC)c(OC)c2)c2cc3c(cc2[C@H](O)[C@H]1CO)OCO3` the value was 13 µM.

The subject of a further experiment is HCT-116. The experiment in a line: In vitro cytotoxicity against human colon cancer HCT 116 cell line. The experiment is classed as functional.
Conditions: not given
In the case of `CCOC(=O)[C@@H]1[C@H](c2cc(OC)c(O)c(OC)c2)c2cc3c(cc2[C@H](O)[C@H]1CO)OCO3`, the GI50 turned out to be 1.7 µM.
`CCOC(=O)[C@@H]1[C@H](c2cc(OC)c(OC)c(OC)c2)c2cc3c(cc2[C@H](O)[C@H]1CO)OCO3`: the GI50 turned out to be 24 µM.

In a further experiment the test system is HCC 2998. The experiment in a line: In vitro cytotoxicity against human colon cancer HCC 2998 cell line. The experiment is classed as functional.
Conditions: not given
Compound `CCOC(=O)[C@@H]1[C@H](c2cc(OC)c(O)c(OC)c2)c2cc3c(cc2[C@H](O)[C@H]1CO)OCO3` gave a GI50 of 1.3 µM.
Regarding `CCOC(=O)[C@@H]1[C@H](c2cc(OC)c(OC)c(OC)c2)c2cc3c(cc2[C@H](O)[C@H]1CO)OCO3`, the GI50 was determined as 14 µM.

The test system of a further experiment is HT-29. The experiment is described as follows: In vitro cytotoxicity against human colon cancer HT 29 cell line. The experiment is classed as functional.
Conditions: not given
Compound `CCOC(=O)[C@@H]1[C@H](c2cc(OC)c(O)c(OC)c2)c2cc3c(cc2[C@H](O)[C@H]1CO)OCO3` came in with a GI50 of 0.88 µM.
Same read-out and setting: for `CCOC(=O)[C@@H]1[C@H](c2cc(OC)c(OC)c(OC)c2)c2cc3c(cc2[C@H](O)[C@H]1CO)OCO3` the value was 17 µM.

A further experiment concerns Hs-578T. The experiment is described as follows: In vitro cytotoxicity against human breast cancer Hs 578.T cell line. The experiment is classed as functional.
Conditions: not given
On to `CCOC(=O)[C@@H]1[C@H](c2cc(OC)c(O)c(OC)c2)c2cc3c(cc2[C@H](O)[C@H]1CO)OCO3`, for which the GI50 turned out to be 1.2 µM.
`CCOC(=O)[C@@H]1[C@H](c2cc(OC)c(OC)c(OC)c2)c2cc3c(cc2[C@H](O)[C@H]1CO)OCO3` registered a GI50 of 27 µM.

The test system of a further experiment is KM12. The experiment in a line: In vitro cytotoxicity against human colon cancer KM 12 cell line. The experiment is classed as functional.
Conditions: not given
For `CCOC(=O)[C@@H]1[C@H](c2cc(OC)c(O)c(OC)c2)c2cc3c(cc2[C@H](O)[C@H]1CO)OCO3`, the GI50 came to 0.78 µM.
In turn, `CCOC(=O)[C@@H]1[C@H](c2cc(OC)c(OC)c(OC)c2)c2cc3c(cc2[C@H](O)[C@H]1CO)OCO3` gave a GI50 of 8.4 µM.

A further experiment has as its system MCF7. The experiment in a line: In vitro cytotoxicity against human breast cancer MCF-7 cell line. The format is functional.
Conditions: not given
Regarding `CCOC(=O)[C@@H]1[C@H](c2cc(OC)c(O)c(OC)c2)c2cc3c(cc2[C@H](O)[C@H]1CO)OCO3`, the GI50 was determined as 2.17 µM.
On the same count and under the same terms, for `CCOC(=O)[C@@H]1[C@H](c2cc(OC)c(OC)c(OC)c2)c2cc3c(cc2[C@H](O)[C@H]1CO)OCO3` the value was 23 µM.

The next experiment concerns M14. The experiment in a line: in vitro cytotoxicity against M-14 cancer cell line. Conditions: Homo sapiens. The format is functional.
As for `CCOC(=O)[C@@H]1[C@H](c2cc(OC)c(O)c(OC)c2)c2cc3c(cc2[C@H](O)[C@H]1CO)OCO3`, the GI50 was found to be 2.1 µM.
The compound `CCOC(=O)[C@@H]1[C@H](c2cc(OC)c(OC)c(OC)c2)c2cc3c(cc2[C@H](O)[C@H]1CO)OCO3` gave a GI50 of 14.9 µM.

In a further experiment the test system is MDA-MB-231. The experiment in a line: In vitro cytotoxicity against human breast cancer MDA-MB 231 cell line. The experiment is classed as functional.
Conditions: not given
As to `CCOC(=O)[C@@H]1[C@H](c2cc(OC)c(O)c(OC)c2)c2cc3c(cc2[C@H](O)[C@H]1CO)OCO3`, growth was halved (GI50) at 6.78 µM.
Still for that read-out and setting: to `CCOC(=O)[C@@H]1[C@H](c2cc(OC)c(OC)c(OC)c2)c2cc3c(cc2[C@H](O)[C@H]1CO)OCO3` belongs 18 µM.

For another experiment, the system named is MDA-MB-435. The experiment is described as follows: In vitro cytotoxicity against human breast cancer MDA-MB 435 cell line. The format is functional.
Conditions: not given
`CCOC(=O)[C@@H]1[C@H](c2cc(OC)c(O)c(OC)c2)c2cc3c(cc2[C@H](O)[C@H]1CO)OCO3`: the GI50 stood at 0.84 µM.
Compound `CCOC(=O)[C@@H]1[C@H](c2cc(OC)c(OC)c(OC)c2)c2cc3c(cc2[C@H](O)[C@H]1CO)OCO3` gave a GI50 of 4.4 µM.

The next experiment has as its system MCF7. The experiment in a line: in vitro cytotoxicity against MCF-7 ADR cancer cell line. The experiment is classed as functional. Conditions: Homo sapiens.
Compound `CCOC(=O)[C@@H]1[C@H](c2cc(OC)c(OC)c(OC)c2)c2cc3c(cc2[C@H](O)[C@H]1CO)OCO3` returned a GI50 of 14.3 µM.

Tested on in the next experiment: not listed separately
The experiment in a line: In vitro cytotoxicity against human breast cancer MCF-7 ADR cell line. The format is functional. The conditions noted are these: MCF7.
For the compound `CCOC(=O)[C@@H]1[C@H](c2cc(OC)c(OC)c(OC)c2)c2cc3c(cc2[C@H](O)[C@H]1CO)OCO3`, the GI50 is 14 µM.

The test system of the next experiment is MDA-N. The experiment is described as follows: In vitro cytotoxicity against human breast cancer MDA-N cell line. The experiment is classed as functional.
Conditions: not given
Turning to `CCOC(=O)[C@@H]1[C@H](c2cc(OC)c(O)c(OC)c2)c2cc3c(cc2[C@H](O)[C@H]1CO)OCO3`, growth was halved (GI50) at 1.06 µM.
`CCOC(=O)[C@@H]1[C@H](c2cc(OC)c(OC)c(OC)c2)c2cc3c(cc2[C@H](O)[C@H]1CO)OCO3` registered a GI50 of 3.5 µM.

The next experiment relates to SW-620. The experiment in a line: In vitro cytotoxicity against human colon cancer SW 620 cell line. The experiment is classed as functional.
Conditions: not given
The compound `CCOC(=O)[C@@H]1[C@H](c2cc(OC)c(O)c(OC)c2)c2cc3c(cc2[C@H](O)[C@H]1CO)OCO3` returned a GI50 of 1.17 µM.
`CCOC(=O)[C@@H]1[C@H](c2cc(OC)c(OC)c(OC)c2)c2cc3c(cc2[C@H](O)[C@H]1CO)OCO3` showed a GI50 of 26 µM.

The test system of a further experiment is SK-OV-3. The experiment is described as follows: in vitro cytotoxicity against SKOV3 cancer cell line. The format is functional. Conditions: Homo sapiens.
Compound `CCOC(=O)[C@@H]1[C@H](c2cc(OC)c(O)c(OC)c2)c2cc3c(cc2[C@H](O)[C@H]1CO)OCO3` registered a GI50 of 3.35 µM.

A further experiment relates to SK-OV-3. The experiment in a line: Compound was evaluated for in vitro cytotoxicity against SKOV3 cancer cell line. The format is functional. Conditions: Homo sapiens.
As to `CCOC(=O)[C@@H]1[C@H](c2cc(OC)c(OC)c(OC)c2)c2cc3c(cc2[C@H](O)[C@H]1CO)OCO3`, halving of growth (GI50) required 29.9 µM.

The GI50 is the concentration at which growth is held to half of that of the control.
